In patent publication US20240025906A1 (NEURON23, INC., priority 2022, published 2024) one finds Kd data, which are given here for 30 compounds.

Each structure is given as a SMILES string.

The target in one test is T1, TYK2 JH2 (Homo sapiens, UniProt P29597).
T1 construct: purchased DiscoverX (KINOMEscan KdELECT service); host or cells: E. coli BL21-derived (T7 phage display) or HEK-293
T1 sequence (P29597 589-875 limits assumed): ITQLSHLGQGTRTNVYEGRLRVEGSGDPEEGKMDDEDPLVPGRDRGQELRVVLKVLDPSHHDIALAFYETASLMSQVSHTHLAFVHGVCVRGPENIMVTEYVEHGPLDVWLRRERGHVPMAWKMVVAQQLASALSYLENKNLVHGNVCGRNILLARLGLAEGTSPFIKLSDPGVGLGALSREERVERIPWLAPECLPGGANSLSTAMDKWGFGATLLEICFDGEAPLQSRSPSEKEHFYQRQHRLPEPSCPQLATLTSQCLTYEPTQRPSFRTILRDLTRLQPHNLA
Put plainly: TYK2 JH2 binding assay (KINOMEscan KdELECT competitive binding). The note with it: TYK2 JH2 domain, DiscoverX KINOMEscan KdELECT (Assay A); read-out: Biochemical TYK2_DiscoverX_JH2_BND_Kd. The procedure:
Assay A: TYK2 JH2 Binding Assay
Competitive binding studies using TKY2 JH2-domain fragments were conducted by DiscoverX using the KINOMEscan (KdELECT) platform. Kinase-tagged T7 phage strains were prepared in an E. coli host derived from the BL21 strain. E. coli were grown to log-phase and infected with […] and incubated with shaking at 32° C. until lysis. The lysates were centrifuged and filtered to remove cell debris. The remaining kinases were produced in HEK-293 cells and subsequently tagged with DNA for qPCR detection. Streptavidin-coated magnetic beads were treated with biotinylated small molecule ligands for 30 minutes at room temperature to generate affinity resins for kinase assays. The liganded beads were blocked with excess biotin and washed with blocking buffer (SeaBlock (Pierce), 1% BSA, 0.05% Tween 20, 1 mM DTT) to remove unbound ligand and to reduce non-specific binding. Binding reactions were assembled by combining kinases, liganded affinity beads, and test compounds in 1× binding buffer (20% SeaBlock, 0.17×PBS, 0.05% Tween 20, 6 mM DTT). Test compounds were prepared as 111× stocks in 100% DMSO. Kds were determined using an 11-point 3-fold compound dilution series with three DMSO control points. All compounds for Kd measurements are distributed by acoustic transfer (non-contact dispensing) in 100% DMSO. The compounds were then diluted directly into the assays such that the final concentration of DMSO was 0.9%. All reactions performed in polypropylene 384-well plate. Each was a final volume of 0.02 ml. The assay plates were incubated at room temperature with shaking for 1 hour and the affinity beads were washed with wash buffer (1×PBS, 0.05% Tween 20). The beads were then re-suspended in elution buffer (1×PBS, 0.05% Tween 20, 0.5 μM non-biotinylated affinity ligand) and incubated at room temperature with shaking for 30 minutes. The kinase concentration in the eluates was measured by qPCR.
In the case of `CCOC(=O)[C@H]1C[C@@H]1C(=O)Nc1cc2c(-c3nc4cc(OC)ccc4o3)cnc(NC)c2cn1` (racemic) [Example 392, ethyl 2-((5-(5-methoxybenzo[d]oxazol-2-y1)-8-(methylamino)-2,7-naphthyridin-3-yl)carbamoyl)cyclopropane-1-carboxylate], the Kd was no more than 100 nM.
On the same count and under the same terms, then `CNc1ncc(-c2nc3cc(OCc4ccccc4)ccc3o2)c2cc(Nc3ccc(OCc4ccccc4)cn3)ncc12` [Example 430, 4-(5-(benzyloxy)benzo[d]oxazol-2-yl)-N^6-(5-(benzyloxy)pyridin-2-yl)-N^1-methyl-2,7-naphthyridine-1,6-diamine], with 100 to 1000 nM.

Still in this test, the particulars now being: TYK2 JH2 domain, KINOMEscan KdELECT (Assay A); read-out: Biochemical TYK2_DiscoverX_JH2_BND_Kd.
For the compound `CNc1ncc(-c2noc(C)n2)c2cc(NC(=O)C3CC3)ncc12` [Example 837, N-(5-(5-methyl-1,2,4-oxadiazol-3-yl)-8-(methylamino)-2,7-naphthyridin-3-yl)cyclopropanecarboxamide], the Kd is no more than 100 nM.
In the case of `CNc1ncc(CCc2cccc(S(C)(=O)=O)c2)c2cc(NC(=O)C3CC3)ncc12` [Example 838, N-(8-(methylamino)-5-(3-(methylsulfonyl)phenethyl)-2,7-naphthyridin-3-yl)cyclopropanecarboxamide], the Kd was no more than 100 nM.
On to `CNc1ncc(C(=O)N2CCCC2)c2cc(NC(=O)C3CC3)ncc12` [Example 840, N-(8-(methylamino)-5-(pyrrolidine-1-carbonyl)-2,7-naphthyridin-3-yl)cyclopropanecarboxamide], for which the Kd was in the range of 100 to 1000 nM.
For the compound `CNc1ncc(-c2nnc3n2CCC3)c2cc(NC(=O)C3CC3)ncc12` [Example 854, N-(5-(6,7-dihydro-5H-pyrrolo[2,1-c][1,2,4]triazol-3-yl)-8-(methylamino)-2,7-naphthyridin-3-yl)cyclopropanecarboxamide], the Kd was in the range of 100 to 1000 nM.
Still for that read-out and setting: the result for `CNc1ncc(-c2cccn3nc(Br)nc23)c2cc(NC(=O)C3CC3)ncc12` [Example 856, N-(5-(2-bromo-[1,2,4]triazolo[1,5-a]pyridin-8-yl)-8-(methylamino)-2,7-naphthyridin-3-yl)cyclopropanecarboxamide] reads 100 to 1000 nM.

The same test, now with this note: TYK2 JH2 domain, KINOMEscan KdELECT (Assay A); read-out: Biochemical TYK2_JH2_Kd.
For the compound `CNc1ncc(N2CCCS2(=O)=O)c2cc(NC(=O)C3CC3)ncc12` [Example 58, N-(5-(1,1-dioxidoisothiazolidin-2-yl)-8-(methylamino)-2,7-naphthyridin-3-yl)cyclopropanecarboxamide], the Kd lay in the range of 100 to 1000 nM.
As to `CNc1ncc(N2Cc3cnccc3C2=O)c2cc(NC(=O)C3CC3)ncc12` [Example 59, N-(8-(methylamino)-5-(1-oxo-1,3-dihydro-2H-pyrrolo[3,4-c]pyridin-2-yl)-2,7-naphthyridin-3-yl)cyclopropanecarboxamide], the Kd lay within 1000 to 10000 nM.
The same measure, in the same setting: then `CNc1ncc(-n2ccc(=O)cc2)c2cc(NC(=O)C3CC3)ncc12` [Example 60, N-(8-(methylamino)-5-(4-oxopyridin-1(4H)-yl)-2,7-naphthyridin-3-yl)cyclopropanecarboxamide], with 100 to 1000 nM.
On the same count and under the same terms, the result for `CNc1ncc(-n2ccccc2=O)c2cc(NC(=O)C3CC3)ncc12` [Example 61, N-(8-(methylamino)-5-(2-oxopyridin-1(2H)-yl)-2,7-naphthyridin-3-yl)cyclopropanecarboxamide] reads 1000 to 10000 nM.
Still for that read-out and setting: the result for `CNc1ncc(Oc2ccccn2)c2cc(NC(=O)C3CC3)ncc12` [Example 62, N-(8-(methylamino)-5-(pyridin-2-yloxy)-2,7-naphthyridin-3-yl)cyclopropanecarboxamide] reads no more than 100 nM; that for `CNc1ncc(-c2ccccc2)c2cc(NC3COC3)ncc12` [Example 97, N^1-methyl-N^6-(oxetan-3-yl)-4-phenyl-2,7-naphthyridine-1,6-diamine], 100 to 1000 nM.
For the compound `CNc1ncc(-c2ccccc2)c2cc(NCc3ccccc3)ncc12` [Example 99, N^6-benzyl-N^1-methyl-4-phenyl-2,7-naphthyridine-1,6-diamine], the Kd was 1000 to 10000 nM.
With `CNc1ncc(-c2ccccc2)c2cc(NCc3ccccn3)ncc12` [Example 100, N^1-methyl-4-phenyl-N^6-(pyridin-2-ylmethyl)-2,7-naphthyridine-1,6-diamine], the Kd lay within 1000 to 10000 nM.
The same measure, in the same setting: then `CNc1ncc(-c2ccccc2)c2cc(Nc3ccccc3)ncc12` [Example 102], with 100 to 1000 nM; and `CNc1ncc(-c2cn(C)c3ncccc23)c2cc(NC(=O)C3CC3)ncc12` [Example 107, N-(5-(1-methyl-1H-pyrrolo[2,3-b]pyridin-3-yl)-8-(methylamino)-2,7-naphthyridin-3-yl)cyclopropanecarboxamide], with no more than 100 nM.
Same read-out and setting: then `CNc1ncc(C(=O)N2CCC(Oc3ccccc3)CC2)c2cc(NC(=O)C3CC3)ncc12` [Example 121, N-(8-(methylamino)-5-(4-phenoxypiperidine-1-carbonyl)-2,7-naphthyridin-3-yl)cyclopropanecarboxamide], with 1000 to 10000 nM; and `CNc1ncc(C(=O)N2CCCCC2)c2cc(NC(=O)C3CC3)ncc12` [Example 122, N-(8-(methylamino)-5-(piperidine-1-carbonyl)-2,7-naphthyridin-3-yl)cyclopropanecarboxamide], with 100 to 1000 nM; and `CNc1ncc(C(N)=O)c2cc(NC(=O)C3CC3)ncc12` [Example 123, 6-(cyclopropanecarboxamido)-1-(methylamino)-2,7-naphthyridine-4-carboxamide], with no more than 100 nM.
For `CNc1ncc(-c2cc(-c3ccccc3)ns2)c2cc(NC(=O)C3CC3)ncc12` [Example 146, N-(8-(methylamino)-5-(3-phenylisothiazol-5-yl)-2,7-naphthyridin-3-yl)cyclopropanecarboxamide], the Kd was no more than 100 nM.
`CSc1ncc(-c2ccccc2)c2cc(NC(=O)C3CC3)ncc12` [Example 159, N-(8-(methylthio)-5-phenyl-2,7-naphthyridin-3-yl)cyclopropanecarboxamide]: the Kd is 100 to 1000 nM.
With `CNc1ncc(-c2nc3cc(OC)ccc3o2)c2cc(NC(=O)C3CC3)ncc12` [Example 182, N-(5-(5-methoxybenzo[d]oxazol-2-yl)-8-(methylamino)-2,7-naphthyridin-3-yl)cyclopropanecarboxamide], the Kd was no more than 100 nM.
The same measure, in the same setting: then `CNc1ncc(-c2nc3cccc(F)c3o2)c2cc(NC(=O)C3CC3)ncc12` [Example 185, N-(5-(7-fluorobenzo[d]oxazol-2-yl)-8-(methylamino)-2,7-naphthyridin-3-yl)cyclopropanecarboxamide], with no more than 100 nM.
The same measure, in the same setting: the result for `CNc1ncc(-c2nc3cc(N4CC(F)(F)C4)ccn3n2)c2cc(NC(=O)C3CC3)ncc12` [Example 189, N-(5-(7-(3,3-difluoroazetidin-1-yl)-[1,2,4]triazolo[1,5-a]pyridin-2-yl)-8-(methylamino)-2,7-naphthyridin-3-yl)cyclopropanecarboxamide] reads no more than 100 nM; that for `CNc1ncc(-c2nc3cc(N4CCCC(N5CC(F)(F)C5)C4)ccn3n2)c2cc(NC(=O)C3CC3)ncc12` (stereo not drawn) [Example 190, N-(5-(7-(3-(3,3-difluoroazetidin-1-yl)piperidin-1-yl)-[1,2,4]triazolo[1,5-a]pyridin-2-yl)-8-(methylamino)-2,7-naphthyridin-3-yl)cyclopropanecarboxamide], no more than 100 nM; that for `CNc1ncc(-c2nc3ccc(F)cn3n2)c2cc(NC(=O)C3CC3)ncc12` [Example 191, N-(5-(6-fluoro-[1,2,4]triazolo[1,5-a]pyridin-2-yl)-8-(methylamino)-2,7-naphthyridin-3-yl)cyclopropanecarboxamide], no more than 100 nM.
With `CNc1ncc(-c2nc3cccc(F)n3n2)c2cc(NC(=O)C3CC3)ncc12` [Example 192, N-(5-(5-fluoro-[1,2,4]triazolo[1,5-a]pyridin-2-yl)-8-(methylamino)-2,7-naphthyridin-3-yl)cyclopropanecarboxamide], the Kd is no more than 100 nM.
The same measure, in the same setting: then `CNc1ncc(-c2nc3c(F)cccn3n2)c2cc(NC(=O)C3CC3)ncc12` [Example 193, N-(5-(8-fluoro-[1,2,4]triazolo[1,5-a]pyridin-2-yl)-8-(methylamino)-2,7-naphthyridin-3-yl)cyclopropanecarboxamide], with no more than 100 nM.
With `CNc1ncc(-c2nc3cc(F)ccn3n2)c2cc(NC(=O)C3CC3)ncc12` [Example 194, N-(5-(7-fluoro-[1,2,4]triazolo[1,5-a]pyridin-2-yl)-8-(methylamino)-2,7-naphthyridin-3-yl)cyclopropanecarboxamide], the Kd is no more than 100 nM.
